From PubChem BioAssay (NCI)
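Where inhibition never reached the appropriate level, the endpoint shown equals the highest concentration tested. Otherwise, values were interpolated linearly from a five-concentration, 48-hour dose response in 96-well plates. GI50 marks 50% less growth. TGI marks complete inhibition of growth.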

What was measured:
Assay in all cases: NCI anticancer screen, dose series, 48 h
HCT-15 colon = tested on: HCT-15 colon
786-0 renal = tested on: 786-0 renal
K-562 leukemia = tested on: K-562 leukemia
NCI-H460 lung = tested on: NCI-H460 lung
LOX IMVI melanoma = tested on: LOX IMVI melanoma
SK-MEL-2 melanoma = tested on: SK-MEL-2 melanoma
ACHN renal = tested on: ACHN renal
OVCAR-8 ovarian = tested on: OVCAR-8 ovarian
IGROV1 ovarian = tested on: IGROV1 ovarian
NCI/ADR-RES ovarian = tested on: NCI/ADR-RES ovarian

How did the TGI (HCT-15 colon) turn out when Cc1ccccc1NC(=O)C(=O)CC(=O)C1CCOC1=O (stereo unspecified) was run?
Its TGI is greater than 100 µM.

What about the TGI (786-0 renal) of the same compound?
The TGI was greater than 100 µM.

What about the TGI (K-562 leukemia) of the same compound?
Its TGI is greater than 100 µM.

What about the TGI (NCI-H460 lung) of the same compound?
The TGI was greater than 100 µM.

And the TGI (LOX IMVI melanoma)?
The TGI was greater than 100 µM.

And the TGI (SK-MEL-2 melanoma)?
The TGI was greater than 100 µM.

And the TGI (ACHN renal)?
The TGI was greater than 100 µM.

And the TGI (OVCAR-8 ovarian)?
Its TGI is greater than 100 µM.

What about the TGI (IGROV1 ovarian) of the same compound?
Its TGI is greater than 100 µM.

How did the TGI (HCT-15 colon) turn out when COC1C(O)CC(OC2CC(OC3CC(O[C@@H]4C(=O)c5c(cc6cc(OC7CC(OC8CC(O)C(O)C(C)O8)C(O)C(C)O7)c(C)c(O)c6c5O)C[C@H]4[C@H](OC)C(=O)[C@@H](O)[C@@H](C)O)OC(C)C3O)OC(C)C2O)OC1C (stereo partly specified) was run?
The TGI was 22 µM.

And the TGI (786-0 renal)?
The TGI was greater than 100 µM.

And the GI50 (K-562 leukemia)?
The GI50 was less than 0.019 µM.

And the TGI (K-562 leukemia)?
The TGI was greater than 100 µM.

What about the TGI (NCI-H460 lung) of the same compound?
The TGI was 4.34 µM.

What about the GI50 (LOX IMVI melanoma) of the same compound?
The GI50 was 0.0164 µM.

And the TGI (LOX IMVI melanoma)?
The TGI was greater than 100 µM.

And the TGI (SK-MEL-2 melanoma)?
The TGI was less than 0.0205 µM.

And the TGI (ACHN renal)?
The TGI was greater than 100 µM.

What about the TGI (OVCAR-8 ovarian) of the same compound?
Its TGI is greater than 100 µM.

What about the GI50 (IGROV1 ovarian) of the same compound?
The GI50 was 0.0363 µM.

And the TGI (IGROV1 ovarian)?
Its TGI is greater than 100 µM.

Which results are given for CCP(C)(C)=O?
TGI (HCT-15 colon): > 100 µM; TGI (786-0 renal): > 100 µM; TGI (K-562 leukemia): > 100 µM; TGI (NCI-H460 lung): > 100 µM; TGI (LOX IMVI melanoma): > 100 µM; TGI (SK-MEL-2 melanoma): > 100 µM; TGI (ACHN renal): > 100 µM; TGI (OVCAR-8 ovarian): > 100 µM; TGI (IGROV1 ovarian): > 100 µM

For NC(=NCCO)c1ccc(N2CCCN(c3ccc(C(N)=NCCO)cc3)CC2)cc1, which GI50 (HCT-15 colon) is on record?
The GI50 was greater than 100 µM.

And the TGI (HCT-15 colon)?
Its TGI is greater than 100 µM.

And the GI50 (786-0 renal)?
Its GI50 is greater than 100 µM.

What about the TGI (786-0 renal) of the same compound?
Its TGI is greater than 100 µM.

And the GI50 (LOX IMVI melanoma)?
Its GI50 is greater than 100 µM.

And the TGI (LOX IMVI melanoma)?
Its TGI is greater than 100 µM.

And the GI50 (ACHN renal)?
Its GI50 is greater than 100 µM.

What about the TGI (ACHN renal) of the same compound?
The TGI was greater than 100 µM.

What about the GI50 (NCI/ADR-RES ovarian) of the same compound?
Its GI50 is greater than 100 µM.

And the TGI (NCI/ADR-RES ovarian)?
Its TGI is greater than 100 µM.

What about the GI50 (OVCAR-8 ovarian) of the same compound?
The GI50 was greater than 100 µM.

What about the TGI (OVCAR-8 ovarian) of the same compound?
The TGI was greater than 100 µM.

C/C(=C1/N=C(c2ccccc2)OC1=O)c1ccccc1 was tested. Which TGI (HCT-15 colon) did it give?
Its TGI is greater than 100 µM.

And the TGI (786-0 renal)?
The TGI was greater than 100 µM.

What about the TGI (K-562 leukemia) of the same compound?
Its TGI is greater than 100 µM.

And the TGI (NCI-H460 lung)?
Its TGI is greater than 100 µM.

And the TGI (LOX IMVI melanoma)?
Its TGI is greater than 100 µM.

What about the TGI (SK-MEL-2 melanoma) of the same compound?
Its TGI is greater than 100 µM.

What about the TGI (ACHN renal) of the same compound?
Its TGI is greater than 100 µM.

And the TGI (OVCAR-8 ovarian)?
Its TGI is greater than 100 µM.

What about the TGI (IGROV1 ovarian) of the same compound?
The TGI was greater than 100 µM.

C/C=C/C=C/CCCCCCCCCCCCC[C@]1(OC)C=CC(CC(=O)OC)OO1 (stereo partly specified) was tested. Which GI50 (HCT-15 colon) did it give?
The GI50 was 16 µM.

And the TGI (HCT-15 colon)?
The TGI was 29.5 µM.

What about the GI50 (786-0 renal) of the same compound?
The GI50 was 17.1 µM.

What about the TGI (786-0 renal) of the same compound?
Its TGI is 33.4 µM.

What about the TGI (K-562 leukemia) of the same compound?
Its TGI is 52.1 µM.

And the TGI (NCI-H460 lung)?
Its TGI is 46.8 µM.

What about the GI50 (LOX IMVI melanoma) of the same compound?
The GI50 was 19.3 µM.

And the TGI (LOX IMVI melanoma)?
The TGI was 37.1 µM.

What about the TGI (SK-MEL-2 melanoma) of the same compound?
Its TGI is 69.5 µM.

And the GI50 (ACHN renal)?
The GI50 was 16.6 µM.

What about the TGI (ACHN renal) of the same compound?
Its TGI is 31.4 µM.

What about the GI50 (OVCAR-8 ovarian) of the same compound?
Its GI50 is 17.6 µM.

What about the TGI (OVCAR-8 ovarian) of the same compound?
Its TGI is 37.7 µM.

And the GI50 (IGROV1 ovarian)?
Its GI50 is 5.61 µM.

And the TGI (IGROV1 ovarian)?
The TGI was 20 µM.

Which results are given for Clc1ccc(-c2nc(C(Cl)Cl)nc3cc(-c4ccccc4)nn23)cc1?
GI50 (HCT-15 colon): 1.3 µM; TGI (HCT-15 colon): > 50 µM; GI50 (786-0 renal): > 50 µM; TGI (786-0 renal): > 50 µM; GI50 (K-562 leukemia): 1.81 µM; TGI (K-562 leukemia): > 50 µM; GI50 (NCI-H460 lung): 0.787 µM; TGI (NCI-H460 lung): 2.15 µM; GI50 (LOX IMVI melanoma): > 50 µM; TGI (LOX IMVI melanoma): > 50 µM; GI50 (SK-MEL-2 melanoma): > 50 µM; TGI (SK-MEL-2 melanoma): > 50 µM; GI50 (NCI/ADR-RES ovarian): 1.27 µM; TGI (NCI/ADR-RES ovarian): > 50 µM; GI50 (OVCAR-8 ovarian): 1.44 µM; TGI (OVCAR-8 ovarian): > 50 µM; GI50 (IGROV1 ovarian): 2.4 µM; TGI (IGROV1 ovarian): > 50 µM

How did the TGI (HCT-15 colon) turn out when CC(C)(C)c1cc(-c2c3nc(c(-c4cc(C(C)(C)C)cc(C(C)(C)C)c4)c4ccc([nH]4)c(-c4cc(C(C)(C)C)cc(C(C)(C)C)c4)c4nc(c(-c5cc(C(C)(C)C)cc(C(C)(C)C)c5)c5ccc2[nH]5)C=C4)C=C3)cc(C(C)(C)C)c1 was run?
Its TGI is greater than 100 µM.

What about the TGI (786-0 renal) of the same compound?
Its TGI is greater than 100 µM.

And the TGI (K-562 leukemia)?
Its TGI is greater than 100 µM.

What about the TGI (NCI-H460 lung) of the same compound?
The TGI was greater than 100 µM.

And the TGI (LOX IMVI melanoma)?
Its TGI is greater than 100 µM.

And the TGI (SK-MEL-2 melanoma)?
Its TGI is greater than 100 µM.

And the TGI (ACHN renal)?
The TGI was greater than 100 µM.

And the TGI (OVCAR-8 ovarian)?
Its TGI is greater than 100 µM.

What about the TGI (IGROV1 ovarian) of the same compound?
The TGI was greater than 100 µM.

What does the source list for N#CSCC1CC(O)(c2ccccc2)CC(c2ccc(Cl)cc2)O1 (stereo unspecified)?
GI50 (HCT-15 colon): 2.4 µM; TGI (HCT-15 colon): 8.05 µM; GI50 (786-0 renal): 2.14 µM; TGI (786-0 renal): 4.66 µM; GI50 (K-562 leukemia): 2.41 µM; TGI (K-562 leukemia): 9.77 µM; GI50 (NCI-H460 lung): 2.33 µM; TGI (NCI-H460 lung): 6.38 µM; GI50 (LOX IMVI melanoma): 1.59 µM; TGI (LOX IMVI melanoma): 2.95 µM; GI50 (SK-MEL-2 melanoma): 1.89 µM; TGI (SK-MEL-2 melanoma): 3.78 µM; GI50 (ACHN renal): 2.78 µM; TGI (ACHN renal): 8.25 µM; GI50 (OVCAR-8 ovarian): 1.98 µM; TGI (OVCAR-8 ovarian): 3.94 µM; GI50 (IGROV1 ovarian): 2.75 µM; TGI (IGROV1 ovarian): 7.72 µM
